Laboratory results as given in patent US5827516A, “Immunomodulatory peptides” (President and Fellows of Harvard College, priority 1995, dated 1998).
Ends that are not written are not given here.

Legend:
HLA-DR1 [1] = target: T1, HLA-DR1 (Homo sapiens, UniProt P01903+P01911, A100R/D57E/F55L/F60I/F76Y/I96L/L162R/M171V/P40L/Q125E/R42F/V115G/Y59C); assay: Competition against 125I-labeled HA 307-319 for binding to "empty" HLA-DR1
T1 construct: made in house; host or cells: Sf9 insect cells

HLA-DR1 [2] = target: T1, HLA-DR1; assay: Resistance to SDS-induced chain dissociation of HLA-DR1 (SDS-PAGE); type: binding

Ki (HLA-DR1 [1]) | Compound | also measured
> 10000 nM | SDLSFSKDWSFYL [β2 m 52-64, reference compound] | –
49 ± 3 nM | VGSDWRFLRGYHQYA [HLA-A2 103-117] | –
< 10 nM | KMRMATPLLMQALPM [Ii 106-120] | –
68 ± 9 nM | IPADLRIISANGCKVDNS [Na+/K+ ATPase 199-216] | –
– | CSCC[C@H](NC(=O)[C@H](CCCNC(=N)N)NC(=O)[C@H](CCSC)NC(=O)[C@H](CCCCN)NC(=O)[C@H](CO)NC(=O)[C@@H](NC(=O)[C@@H]1CCCN1C(=O)[C@H](CCCCN)NC(=O)[C@@H]1CCCN1C(=O)[C@@H]1CCCN1C(=O)[C@H](CCCCN)NC(=O)[C@@H]1CCCN1C(=O)[C@@H](N)CC(C)C)C(C)C)C(=O)N[C@@H](C)C(=O)N[C@H](C(=O)O)[C@@H](C)O [Ii 97-111, reference compound] | able to compete with HA 307-319 for binding to DR1 (HLA-DR1 [1]): Neither; able to confer resistance to SDS-induced α-β chain dissociation of "empty" DR1 (HLA-DR1 [2]): Neither
– | Ii 107-120: Ii peptide named in the text as the highest-affinity competitor; probably the Ii 106-120 entry of Table 2 (MRMATPLLMQALPM) | relative binding affinity to DR1 among competitor peptides (HLA-DR1 [1]; at first approximation, equivalent to control HA peptide): highest affinity of all the competitor peptides measured

Compound | Ki (HLA-DR1 [1]) | also measured
LPKPPKPVSKMRMATPLLMQALPM [Ii 98-121] | 33 ± 5 nM | –
RVEYHFLSPYVSPKESP [Transf. Recept. 680-696] | < 10 nM | –
